Square brackets hold non-standard residues; d marks the D form. Peptide text beside a SMILES is read from it. NMeW = CN[C@@H](Cc1c[nH]c2ccccc12)C(=O)O; NMeY = CN[C@@H](Cc1ccc(O)cc1)C(=O)O; NMeL = CN[C@@H](CC(C)C)C(=O)O; dNMeL = CN[C@H](CC(C)C)C(=O)O; Sar = CNCC(=O)O
Columns and labels:
[1] = Apparent permeability of the compound at 50 uM after 5 hrs by PAMPA method; type: physicochemical
[2] = Apparent permeability from apical to basolateral side in human Caco2 cells by LC-MS analysis; type: ADME, cell-based; settings: Caco-2

## CC(C)C[C@H]1NC(=O)[C@@H](Cc2ccccc2)NC(=O)CNC(=O)[C@H](C)NC(=O)[C@H](Cc2ccc(O)cc2)NC(=O)[C@@H]2CCCN2C1=O
[1]
  Papp at 5 h, 50 µM: 0.01 ×10⁻⁶ cm/s
[2]
  Papp A→B: < 0.14 ×10⁻⁶ cm/s

## CC(C)C[C@@H]1NC(=O)[C@H](C(C)C)NC(=O)[C@H](Cc2c[nH]c3ccccc23)N(C)C(=O)[C@H](Cc2ccccc2)NC(=O)[C@H](Cc2ccccc2)NC(=O)[C@@H]2CCCN2C1=O (cyclo(FF[NMeW]VLP))
[2]
  Papp A→B: 1.7 ×10⁻⁶ cm/s

## CC(C)C[C@@H]1NC(=O)[C@H](Cc2c[nH]c3ccccc23)NC(=O)[C@H]2CCCN2C(=O)[C@@H](CC(C)C)NC(=O)[C@@H](CC(C)C)NC(=O)[C@@H](CC(C)C)NC1=O
[1]
  Papp at 5 h, 50 µM: 3.33 ×10⁻⁶ cm/s
[2]
  Papp A→B: 9.46 ×10⁻⁶ cm/s

## CC(C)C[C@@H]1NC(=O)[C@H](CC(C)C)N(C)C(=O)[C@@H](CC(C)C)N(C)C(=O)[C@H](Cc2ccc(O)cc2)NC(=O)[C@@H]2CCCN2C(=O)[C@H](CC(C)C)N(C)C1=O
[1]
  Papp at 5 h, 50 µM: 2.3 ×10⁻⁶ cm/s
[2]
  Papp A→B: 13.9 ×10⁻⁶ cm/s

## CC(C)C[C@H]1NC(=O)[C@H](CC(C)C)N(C)C(=O)[C@H](CC(C)C)N(C)C(=O)[C@H](Cc2ccc(O)cc2)NC(=O)[C@@H]2CCCN2C(=O)[C@H]2CCCN2C1=O
[1]
  Papp at 5 h, 50 µM: 1.11 ×10⁻⁶ cm/s
[2]
  Papp A→B: 5.45 ×10⁻⁶ cm/s

## CC(C)C[C@@H]1NC(=O)[C@@H](CC(C)C)N(C)C(=O)[C@@H](CC(C)C)N(C)C(=O)[C@H](Cc2ccc(O)cc2)NC(=O)[C@@H]2CCCN2C(=O)[C@@H](CC(C)C)NC1=O
[1]
  Papp at 5 h, 50 µM: 0.67 ×10⁻⁶ cm/s
[2]
  Papp A→B: 11.9 ×10⁻⁶ cm/s

## CC(C)C[C@@H]1NC(=O)[C@H](Cc2ccccc2)NC(=O)[C@H]([C@@H](C)O)NC(=O)CNC(=O)[C@H](C)NC(=O)[C@H](Cc2ccc(O)cc2)NC1=O (cyclo(AGTFLY))
[1]
  Papp at 5 h, 50 µM: 0.02 ×10⁻⁶ cm/s
[2]
  Papp A→B: 0.46 ×10⁻⁶ cm/s

## CC(C)C[C@H]1NC(=O)[C@H](Cc2ccccc2)NC(=O)CNC(=O)[C@@H](C)NC(=O)[C@H](Cc2ccc(O)cc2)NC(=O)[C@@H]2CCCN2C1=O
[1]
  Papp at 5 h, 50 µM: 0.07 ×10⁻⁶ cm/s
[2]
  Papp A→B: 0.58 ×10⁻⁶ cm/s

## CC(C)C[C@@H]1NC(=O)[C@H](Cc2ccccc2)NC(=O)[C@H]([C@@H](C)O)NC(=O)CN(C)C(=O)[C@H]([C@@H](C)O)NC(=O)[C@H](Cc2ccc(O)cc2)NC1=O (cyclo(FLYT[Sar]T))
[1]
  Papp at 5 h, 50 µM: 0.02 ×10⁻⁶ cm/s
[2]
  Papp A→B: 0.17 ×10⁻⁶ cm/s

## CC(C)C[C@H]1C(=O)N2CCC[C@H]2C(=O)N[C@@H](Cc2ccc(O)cc2)C(=O)N(C)[C@H](C)C(=O)N(C)CC(=O)N[C@@H](Cc2ccccc2)C(=O)N1C
[2]
  Papp A→B: < 0.14 ×10⁻⁶ cm/s

## CC(C)C[C@H]1C(=O)N2CCC[C@H]2C(=O)N[C@@H](Cc2ccc(O)cc2)C(=O)N(C)[C@H](C)C(=O)N(C)CC(=O)N[C@H](Cc2ccccc2)C(=O)N1C
[1]
  Papp at 5 h, 50 µM: 0.14 ×10⁻⁶ cm/s
[2]
  Papp A→B: < 0.14 ×10⁻⁶ cm/s

## CC(C)C[C@@H]1NC(=O)[C@@H](CC(C)C)N(C)C(=O)[C@H](CC(C)C)NC(=O)[C@H](Cc2ccc(O)cc2)NC(=O)[C@H]2CCCN2C(=O)[C@H](CC(C)C)NC1=O (cyclo(LL[dP]YL[dNMeL]))
[1]
  Papp at 5 h, 50 µM: 0.77 ×10⁻⁶ cm/s

## CC[C@H](C)[C@@H]1NC(=O)[C@H](Cc2c[nH]c3ccccc23)NC(=O)[C@H]2CCCN2C(=O)[C@H]([C@@H](C)CC)NC(=O)[C@H]([C@@H](C)CC)NC(=O)[C@@H](CC(C)C)NC1=O
[1]
  Papp at 5 h, 50 µM: 0.41 ×10⁻⁶ cm/s
[2]
  Papp A→B: 3.06 ×10⁻⁶ cm/s

## CC(C)C[C@@H]1NC(=O)[C@H](Cc2ccc(O)cc2)NC(=O)[C@@H]2CCCN2C(=O)[C@H]2CCCN2C(=O)[C@@H](CC(C)C)NC(=O)[C@H](CC(C)C)NC1=O
[1]
  Papp at 5 h, 50 µM: 0.09 ×10⁻⁶ cm/s
[2]
  Papp A→B: 0.1 ×10⁻⁶ cm/s

## CC(C)C[C@@H]1NC(=O)[C@H](Cc2c[nH]c3ccccc23)NC(=O)[C@H]2CCCN2C(=O)[C@H](CC(C)C)NC(=O)[C@H](CC(C)C)NC(=O)[C@@H](CC(C)C)NC1=O
[1]
  Papp at 5 h, 50 µM: 1.67 ×10⁻⁶ cm/s
[2]
  Papp A→B: 5.95 ×10⁻⁶ cm/s

## CC(C)C[C@@H]1NC(=O)[C@@H](CC(C)C)NC(=O)[C@@H](CC(C)C)NC(=O)[C@@H](CC(C)C)NC(=O)[C@H](Cc2c[nH]c3ccccc23)NC(=O)[C@@H]2CCCN2C1=O
[1]
  Papp at 5 h, 50 µM: 0.28 ×10⁻⁶ cm/s
[2]
  Papp A→B: 0.36 ×10⁻⁶ cm/s

## CC(C)C[C@@H]1C(=O)N(C)[C@H](CC(C)C)C(=O)N[C@H](CC(C)C)C(=O)N(C)[C@@H](CC(C)C)C(=O)N2CCC[C@H]2C(=O)N[C@@H](Cc2ccc(O)cc2)C(=O)N1C
[1]
  Papp at 5 h, 50 µM: 1.88 ×10⁻⁶ cm/s
[2]
  Papp A→B: 16.4 ×10⁻⁶ cm/s

## CC(C)C[C@@H]1NC(=O)[C@H](C(C)C)NC(=O)[C@H](Cc2c[nH]c3ccccc23)NC(=O)[C@H](Cc2ccccc2)NC(=O)[C@H](Cc2ccccc2)NC(=O)[C@@H]2CCCN2C1=O (cyclo(FFWVLP))
[1]
  Papp at 5 h, 50 µM: 0.37 ×10⁻⁶ cm/s
[2]
  Papp A→B: 0.24 ×10⁻⁶ cm/s

## CC(C)C[C@@H]1NC(=O)[C@H](Cc2ccc(O)cc2)NC(=O)[C@H]2CCCN2C(=O)[C@H](CC(C)C)NC(=O)[C@H](CC(C)C)N(C)C(=O)[C@@H](CC(C)C)NC1=O (cyclo(L[dL][NMeL]L[dP]Y))
[1]
  Papp at 5 h, 50 µM: 0.76 ×10⁻⁶ cm/s
[2]
  Papp A→B: 7.83 ×10⁻⁶ cm/s

## CC(C)C[C@@H]1NC(=O)[C@H](CC(C)C)N(C)C(=O)[C@H](Cc2ccc(O)cc2)NC(=O)[C@@H]2CCCN2C(=O)[C@H]2CCCN2C(=O)[C@@H](CC(C)C)NC1=O
[1]
  Papp at 5 h, 50 µM: 0.29 ×10⁻⁶ cm/s
[2]
  Papp A→B: 1.04 ×10⁻⁶ cm/s

## CC(C)C[C@@H]1NC(=O)[C@H](Cc2ccccc2)NC(=O)CNC(=O)[C@@H](C)NC(=O)[C@H](Cc2ccc(O)cc2)NC(=O)[C@@H]2CCCN2C1=O
[1]
  Papp at 5 h, 50 µM: 0.03 ×10⁻⁶ cm/s
[2]
  Papp A→B: < 0.14 ×10⁻⁶ cm/s

## CC(C)C[C@@H]1NC(=O)[C@@H](CC(C)C)NC(=O)[C@H](CC(C)C)NC(=O)[C@H](Cc2ccc(O)cc2)N(C)C(=O)[C@H]2CCCN2C(=O)[C@H](CC(C)C)NC1=O (cyclo(LL[dP][NMeY]L[dL]))
[1]
  Papp at 5 h, 50 µM: 1.29 ×10⁻⁶ cm/s
[2]
  Papp A→B: 9.13 ×10⁻⁶ cm/s

## CC(C)C[C@@H]1NC(=O)[C@H](Cc2ccccc2)NC(=O)[C@@H](CC(C)C)N(C)C(=O)[C@H](CC(C)C)N(C)C(=O)[C@H](Cc2ccc(O)cc2)NC(=O)[C@@H]2CCCN2C1=O
[1]
  Papp at 5 h, 50 µM: 0.41 ×10⁻⁶ cm/s
[2]
  Papp A→B: 12 ×10⁻⁶ cm/s

## CC(C)C[C@@H]1NC(=O)[C@H](Cc2ccc(O)cc2)NC(=O)[C@@H]2CCCN2C(=O)[C@@H](CC(C)C)NC(=O)[C@@H](CC(C)C)N(C)C(=O)[C@@H](CC(C)C)N(C)C1=O
[1]
  Papp at 5 h, 50 µM: 3.83 ×10⁻⁶ cm/s
[2]
  Papp A→B: 21.8 ×10⁻⁶ cm/s

## C[C@@H]1NC(=O)[C@H](C)N(C)C(=O)[C@H](C)NC(=O)[C@H](C)N(C)C(=O)[C@H](C)NC(=O)[C@@H](C)NC1=O
[1]
  Papp at 5 h, 50 µM: < 0.01 ×10⁻⁶ cm/s
[2]
  Papp A→B: < 0.14 ×10⁻⁶ cm/s

## CC(C)C[C@@H]1NC(=O)[C@H](Cc2ccccc2)NC(=O)CNC(=O)[C@H](C)NC(=O)[C@H](Cc2ccc(O)cc2)NC(=O)[C@H]2CCCN2C1=O
[1]
  Papp at 5 h, 50 µM: 0.01 ×10⁻⁶ cm/s
[2]
  Papp A→B: 0.27 ×10⁻⁶ cm/s

## CC(C)C[C@@H]1NC(=O)[C@H](Cc2ccc(O)cc2)NC(=O)[C@H]2CCCN2C(=O)[C@H](CC(C)C)NC(=O)[C@H](CC(C)C)N(C)C(=O)[C@@H](CC(C)C)N(C)C1=O
[1]
  Papp at 5 h, 50 µM: 0.96 ×10⁻⁶ cm/s
[2]
  Papp A→B: 10.8 ×10⁻⁶ cm/s

## CC(C)C[C@@H]1NC(=O)[C@@H](CC(C)C)NC(=O)[C@H](Cc2ccccc2)NC(=O)CNC(=O)[C@@H](C)NC(=O)[C@H](Cc2ccc(O)cc2)NC1=O
[1]
  Papp at 5 h, 50 µM: 0.02 ×10⁻⁶ cm/s
[2]
  Papp A→B: 0.72 ×10⁻⁶ cm/s

## CC(C)C[C@H]1NC(=O)[C@H](Cc2ccccc2)NC(=O)CN(C)C(=O)[C@@H](C)N(C)C(=O)[C@H](Cc2ccc(O)cc2)NC(=O)[C@@H]2CCCN2C1=O
[1]
  Papp at 5 h, 50 µM: 0.07 ×10⁻⁶ cm/s
[2]
  Papp A→B: 0.63 ×10⁻⁶ cm/s

## CC(C)C[C@H]1C(=O)N2CCC[C@H]2C(=O)N[C@@H](Cc2ccccc2)C(=O)N[C@@H](Cc2ccccc2)C(=O)N[C@@H](Cc2c[nH]c3ccccc23)C(=O)N[C@@H](C(C)C)C(=O)N1C (cyclo(FFWV[NMeL]P))
[2]
  Papp A→B: 6.82 ×10⁻⁶ cm/s

## CC(C)C[C@@H]1NC(=O)[C@H](Cc2c[nH]c3ccccc23)NC(=O)[C@@H]2CCCN2C(=O)[C@H]2CCCN2C(=O)[C@@H](CC(C)C)NC(=O)[C@H](CC(C)C)NC1=O
[1]
  Papp at 5 h, 50 µM: 0.19 ×10⁻⁶ cm/s
[2]
  Papp A→B: 0.21 ×10⁻⁶ cm/s

## C[C@@H](O)[C@@H]1NC(=O)[C@H](CCCCN)NC(=O)[C@@H](Cc2c[nH]c3ccccc23)NC(=O)[C@H](Cc2ccccc2)NC(=O)[C@@H]2CCCN2C(=O)[C@H](Cc2ccccc2)NC1=O
[1]
  Papp at 5 h, 50 µM: 0.08 ×10⁻⁶ cm/s
[2]
  Papp A→B: 0.93 ×10⁻⁶ cm/s

## CC(C)C[C@@H]1NC(=O)[C@H](Cc2ccccc2)NC(=O)[C@H]([C@@H](C)O)NC(=O)CNC(=O)[C@H]([C@@H](C)O)NC(=O)[C@H](Cc2ccc(O)cc2)NC1=O (cyclo(FLYTGT))
[1]
  Papp at 5 h, 50 µM: 0.02 ×10⁻⁶ cm/s
[2]
  Papp A→B: 0.04 ×10⁻⁶ cm/s

## CC(C)C[C@@H]1NC(=O)[C@H](Cc2ccc(O)cc2)N(C)C(=O)[C@H]2CCCN2C(=O)[C@H](CC(C)C)NC(=O)[C@H](CC(C)C)N(C)C(=O)[C@@H](CC(C)C)NC1=O
[1]
  Papp at 5 h, 50 µM: 1.31 ×10⁻⁶ cm/s
[2]
  Papp A→B: 11.3 ×10⁻⁶ cm/s

## CC(C)C[C@@H]1NC(=O)[C@@H](CC(C)C)N(C)C(=O)[C@@H](CC(C)C)N(C)C(=O)[C@H](Cc2ccc(O)cc2)NC(=O)[C@@H]2CCCN2C(=O)[C@@H](CC(C)C)N(C)C1=O
[1]
  Papp at 5 h, 50 µM: 0.1 ×10⁻⁶ cm/s
[2]
  Papp A→B: 14.7 ×10⁻⁶ cm/s

## CN1C(=O)[C@H]2CCCN2C(=O)[C@H](CCCCN)NC(=O)[C@H](CCCNC(=N)N)NC(=O)[C@@H](CCCNC(=N)N)NC(=O)[C@H](CCCNC(=N)N)NC(=O)[C@@H]1Cc1c[nH]c2ccccc12
[2]
  Papp A→B: < 0.14 ×10⁻⁶ cm/s

## CC[C@H](C)[C@@H]1NC(=O)[C@H](C(C)C)NC(=O)[C@H](CC(C)C)NC(=O)CNC(=O)[C@@H]2CCCN2C(=O)[C@H](Cc2ccc(O)cc2)NC1=O (cyclo(GLVIYP))
[2]
  Papp A→B: 0.11 ×10⁻⁶ cm/s

## C=C[C@H]1C[N@@]2CC[C@H]1C[C@@H]2[C@@H](O)c1ccnc2ccc(OC)cc12 [QUINIDINE]
[1]
  Papp at 5 h, 50 µM: 3.28 ×10⁻⁶ cm/s

Reference: ChEMBL document CHEMBL3425496, “Exploring experimental and computational markers of cyclic peptides: Charting islands of permeability” (Eur J Med Chem, 2015)
